Test results taken from PubChem BioAssay (NCI).
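Results reflect a 48-hour exposure of cells in 96-well plates to compound at five concentrations. TGI marks complete inhibition of growth.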

Experiments:
Assay in all cases: NCI anticancer screen, dose series, 48 h
786-0 renal = tested on: 786-0 renal
A498 renal = tested on: A498 renal
A549 NSCLC = tested on: A549 NSCLC
ACHN renal = tested on: ACHN renal
CAKI-1 renal = tested on: CAKI-1 renal
CCRF-CEM leukemia = tested on: CCRF-CEM leukemia
COLO 205 colon = tested on: COLO 205 colon
DU-145 prostate = tested on: DU-145 prostate
EKVX NSCLC = tested on: EKVX NSCLC
HCC-2998 colon = tested on: HCC-2998 colon
HCT-116 colon = tested on: HCT-116 colon
HCT-15 colon = tested on: HCT-15 colon
HL-60(TB) leukemia = tested on: HL-60(TB) leukemia
HOP-62 NSCLC = tested on: HOP-62 NSCLC
HOP-92 NSCLC = tested on: HOP-92 NSCLC
HS 578T breast = tested on: HS 578T breast
HT29 colon = tested on: HT29 colon
IGROV1 ovarian = tested on: IGROV1 ovarian
K-562 leukemia = tested on: K-562 leukemia
KM12 colon = tested on: KM12 colon
LOX IMVI melanoma = tested on: LOX IMVI melanoma
M14 melanoma = tested on: M14 melanoma
MALME-3M melanoma = tested on: MALME-3M melanoma
MCF7 breast = tested on: MCF7 breast
MDA-MB-231 breast = tested on: MDA-MB-231 breast
MDA-MB-435 = tested on: MDA-MB-435
MDA-N = tested on: MDA-N
MOLT-4 leukemia = tested on: MOLT-4 leukemia
NCI-H226 lung = tested on: NCI-H226 lung
NCI-H23 lung = tested on: NCI-H23 lung
NCI-H460 lung = tested on: NCI-H460 lung
NCI-H522 lung = tested on: NCI-H522 lung
NCI/ADR-RES ovarian = tested on: NCI/ADR-RES ovarian
OVCAR-3 ovarian = tested on: OVCAR-3 ovarian
OVCAR-4 ovarian = tested on: OVCAR-4 ovarian
OVCAR-5 ovarian = tested on: OVCAR-5 ovarian
OVCAR-8 ovarian = tested on: OVCAR-8 ovarian
PC-3 prostate = tested on: PC-3 prostate
RXF 393 renal = tested on: RXF 393 renal
SF-268 CNS = tested on: SF-268 CNS
SF-295 CNS = tested on: SF-295 CNS
SF-539 CNS = tested on: SF-539 CNS
SK-MEL-2 melanoma = tested on: SK-MEL-2 melanoma
SK-MEL-28 melanoma = tested on: SK-MEL-28 melanoma
SK-MEL-5 melanoma = tested on: SK-MEL-5 melanoma
SK-OV-3 ovarian = tested on: SK-OV-3 ovarian
SN12C renal = tested on: SN12C renal
SNB-19 CNS = tested on: SNB-19 CNS
SNB-75 CNS = tested on: SNB-75 CNS
SR leukemia = tested on: SR leukemia
SW-620 colon = tested on: SW-620 colon
T-47D breast = tested on: T-47D breast
TK-10 renal = tested on: TK-10 renal
U251 CNS = tested on: U251 CNS
UACC-257 melanoma = tested on: UACC-257 melanoma
UACC-62 melanoma = tested on: UACC-62 melanoma
RPMI-8226 leukemia = tested on: RPMI-8226 leukemia
UO-31 renal = tested on: UO-31 renal

Work on CCOC(=O)CC1c2ccc(O)cc2OC(=O)C1c1ccc([N+](=O)[O-])cc1 (centres undefined) yielded a TGI (786-0 renal) of over 100 µM, a TGI (A498 renal) of 89.1 µM and a TGI (A549 NSCLC) of over 100 µM. For the same compound, the TGI (ACHN renal) was 71.7 µM, the TGI (CAKI-1 renal) was 94.5 µM and the TGI (CCRF-CEM leukemia) was 62.1 µM. The TGI (COLO 205 colon) was 33 µM, the TGI (DU-145 prostate) was over 100 µM and the TGI (EKVX NSCLC) was over 100 µM. The TGI (HCC-2998 colon) was 60.6 µM, the TGI (HCT-116 colon) was 82.3 µM and the TGI (HCT-15 colon) was over 100 µM. For the same compound, the TGI (HL-60(TB) leukemia) was 60 µM, the TGI (HOP-62 NSCLC) was 68.2 µM and the TGI (HOP-92 NSCLC) was 63.2 µM. The TGI (HS 578T breast) was over 100 µM, the TGI (HT29 colon) was over 100 µM and the TGI (IGROV1 ovarian) was 60.5 µM. The TGI (K-562 leukemia) was over 100 µM, the TGI (KM12 colon) was 97.8 µM and the TGI (LOX IMVI melanoma) was over 100 µM. For the same compound, the TGI (M14 melanoma) was 43.8 µM, the TGI (MALME-3M melanoma) was 70.3 µM and the TGI (MCF7 breast) was 40.9 µM. For the same compound, the TGI (MDA-MB-231 breast) was 48.6 µM, the TGI (MDA-MB-435) was 56.1 µM and the TGI (MDA-N) was 93.5 µM. It also gave a TGI (MOLT-4 leukemia) of 78.6 µM, a TGI (NCI-H226 lung) of 58.4 µM and a TGI (NCI-H23 lung) of 96.7 µM. The TGI (NCI-H460 lung) was over 100 µM, the TGI (NCI-H522 lung) was 66.5 µM and the TGI (NCI/ADR-RES ovarian) was 72.6 µM. For the same compound, the TGI (OVCAR-3 ovarian) was over 100 µM, the TGI (OVCAR-4 ovarian) was 92.3 µM and the TGI (OVCAR-5 ovarian) was over 100 µM. The TGI (OVCAR-8 ovarian) was 75.7 µM, the TGI (PC-3 prostate) was 67.2 µM and the TGI (RXF 393 renal) was 64.4 µM. The TGI (SF-268 CNS) was over 100 µM, the TGI (SF-295 CNS) was over 100 µM and the TGI (SF-539 CNS) was over 100 µM. For the same compound, the TGI (SK-MEL-2 melanoma) was 40.1 µM, the TGI (SK-MEL-28 melanoma) was over 100 µM and the TGI (SK-MEL-5 melanoma) was 29 µM. For the same compound, the TGI (SK-OV-3 ovarian) was 85.5 µM, the TGI (SN12C renal) was 81.3 µM and the TGI (SNB-19 CNS) was over 100 µM. It also gave a TGI (SNB-75 CNS) of 56 µM, a TGI (SR leukemia) of 77.5 µM and a TGI (SW-620 colon) of over 100 µM. For the same compound, the TGI (T-47D breast) was 60 µM, the TGI (TK-10 renal) was 75.3 µM and the TGI (U251 CNS) was over 100 µM. It also gave a TGI (UACC-257 melanoma) of 94.5 µM and a TGI (UACC-62 melanoma) of 84.4 µM.

N#Cc1sc2nc(/C=C3/C=CC=CC3=O)c(O)n2c1N was tested, and the TGI (786-0 renal) was over 100 µM, the TGI (A498 renal) was over 100 µM and the TGI (A549 NSCLC) was over 100 µM. The TGI (ACHN renal) was over 100 µM, the TGI (CAKI-1 renal) was over 100 µM and the TGI (CCRF-CEM leukemia) was 74.9 µM. For the same compound, the TGI (COLO 205 colon) was over 100 µM, the TGI (DU-145 prostate) was over 100 µM and the TGI (EKVX NSCLC) was over 100 µM. It also gave a TGI (HCC-2998 colon) of over 100 µM, a TGI (HCT-116 colon) of over 100 µM and a TGI (HCT-15 colon) of over 100 µM. The TGI (HL-60(TB) leukemia) was 44.3 µM, the TGI (HOP-62 NSCLC) was over 100 µM and the TGI (HOP-92 NSCLC) was over 100 µM. It also gave a TGI (HS 578T breast) of over 100 µM, a TGI (HT29 colon) of over 100 µM and a TGI (IGROV1 ovarian) of over 100 µM. For the same compound, the TGI (K-562 leukemia) was 55.9 µM, the TGI (KM12 colon) was over 100 µM and the TGI (LOX IMVI melanoma) was over 100 µM. For the same compound, the TGI (M14 melanoma) was over 100 µM, the TGI (MALME-3M melanoma) was over 100 µM and the TGI (MCF7 breast) was over 100 µM. For the same compound, the TGI (MDA-MB-231 breast) was over 100 µM, the TGI (MDA-MB-435) was over 100 µM and the TGI (MDA-N) was over 100 µM. It also gave a TGI (MOLT-4 leukemia) of 59.8 µM, a TGI (NCI-H226 lung) of over 100 µM and a TGI (NCI-H23 lung) of over 100 µM. For the same compound, the TGI (NCI-H522 lung) was over 100 µM, the TGI (NCI/ADR-RES ovarian) was over 100 µM and the TGI (OVCAR-3 ovarian) was over 100 µM. For the same compound, the TGI (OVCAR-4 ovarian) was over 100 µM, the TGI (OVCAR-5 ovarian) was over 100 µM and the TGI (OVCAR-8 ovarian) was over 100 µM. It also gave a TGI (PC-3 prostate) of over 100 µM, a TGI (RPMI-8226 leukemia) of 81.2 µM and a TGI (RXF 393 renal) of over 100 µM. The TGI (SF-268 CNS) was over 100 µM, the TGI (SF-295 CNS) was over 100 µM and the TGI (SF-539 CNS) was 60 µM. It also gave a TGI (SK-MEL-2 melanoma) of over 100 µM, a TGI (SK-MEL-28 melanoma) of over 100 µM and a TGI (SK-MEL-5 melanoma) of over 100 µM. For the same compound, the TGI (SK-OV-3 ovarian) was over 100 µM, the TGI (SN12C renal) was over 100 µM and the TGI (SNB-19 CNS) was over 100 µM. The TGI (SNB-75 CNS) was over 100 µM, the TGI (SR leukemia) was 60.3 µM and the TGI (SW-620 colon) was over 100 µM. It also gave a TGI (T-47D breast) of over 100 µM, a TGI (TK-10 renal) of over 100 µM and a TGI (U251 CNS) of over 100 µM. The TGI (UACC-257 melanoma) was over 100 µM and the TGI (UO-31 renal) was over 100 µM.

For CC1(C#N)CC(C)(C)C(/C=C2/CC(C)(C)C(/C=C3/OC(=N)CC3(C)C)=N2)=N1 (centres undefined), the TGI (786-0 renal) was 62.6 µM, the TGI (A498 renal) was 37.8 µM and the TGI (A549 NSCLC) was over 100 µM. It also gave a TGI (ACHN renal) of 58.9 µM, a TGI (CAKI-1 renal) of over 100 µM and a TGI (CCRF-CEM leukemia) of over 100 µM. It also gave a TGI (COLO 205 colon) of 34.4 µM, a TGI (DU-145 prostate) of over 100 µM and a TGI (EKVX NSCLC) of 51.6 µM. For the same compound, the TGI (HCC-2998 colon) was 93.3 µM, the TGI (HCT-116 colon) was over 100 µM and the TGI (HCT-15 colon) was 44.1 µM. For the same compound, the TGI (HL-60(TB) leukemia) was 78.1 µM, the TGI (HOP-62 NSCLC) was 56.6 µM and the TGI (HOP-92 NSCLC) was 39.9 µM. For the same compound, the TGI (HS 578T breast) was 58.9 µM, the TGI (HT29 colon) was over 100 µM and the TGI (IGROV1 ovarian) was 46.3 µM. It also gave a TGI (K-562 leukemia) of 78.1 µM, a TGI (KM12 colon) of 56.2 µM and a TGI (LOX IMVI melanoma) of over 100 µM. It also gave a TGI (M14 melanoma) of 85.8 µM, a TGI (MALME-3M melanoma) of 20 µM and a TGI (MCF7 breast) of 26.3 µM. It also gave a TGI (MDA-MB-231 breast) of over 100 µM, a TGI (MDA-MB-435) of 63.9 µM and a TGI (MDA-N) of 92.1 µM. The TGI (MOLT-4 leukemia) was 89.7 µM, the TGI (NCI-H226 lung) was over 100 µM and the TGI (NCI-H23 lung) was 60.6 µM. It also gave a TGI (NCI-H460 lung) of 39.9 µM, a TGI (NCI-H522 lung) of 34 µM and a TGI (NCI/ADR-RES ovarian) of 54 µM. For the same compound, the TGI (OVCAR-3 ovarian) was 45.8 µM, the TGI (OVCAR-4 ovarian) was 43.7 µM and the TGI (OVCAR-5 ovarian) was over 100 µM. For the same compound, the TGI (OVCAR-8 ovarian) was 74 µM, the TGI (PC-3 prostate) was over 100 µM and the TGI (RPMI-8226 leukemia) was 64 µM. The TGI (RXF 393 renal) was 44.5 µM, the TGI (SF-268 CNS) was over 100 µM and the TGI (SF-295 CNS) was 60.9 µM. The TGI (SF-539 CNS) was over 100 µM, the TGI (SK-MEL-2 melanoma) was over 100 µM and the TGI (SK-MEL-28 melanoma) was over 100 µM. For the same compound, the TGI (SK-MEL-5 melanoma) was 32.4 µM, the TGI (SK-OV-3 ovarian) was 61 µM and the TGI (SN12C renal) was 95.9 µM. It also gave a TGI (SNB-19 CNS) of over 100 µM, a TGI (SNB-75 CNS) of over 100 µM and a TGI (SR leukemia) of over 100 µM. The TGI (SW-620 colon) was over 100 µM, the TGI (T-47D breast) was 61.8 µM and the TGI (TK-10 renal) was over 100 µM. The TGI (U251 CNS) was over 100 µM, the TGI (UACC-257 melanoma) was 48.7 µM and the TGI (UACC-62 melanoma) was 66 µM.
